Measurements taken from PubChem BioAssay (NCI).
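All cell lines were grown in 96-well plates and treated with compound for 48 hours. At the GI50, growth is halved. TGI: total growth inhibition.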

Legend:
Experiment in all cases: NCI-60 cell line screen, 48 h
LOX IMVI melanoma = system: LOX IMVI melanoma
MALME-3M melanoma = system: MALME-3M melanoma
CAKI-1 renal = system: CAKI-1 renal
OVCAR-4 ovarian = system: OVCAR-4 ovarian
UO-31 renal = system: UO-31 renal
OVCAR-8 ovarian = system: OVCAR-8 ovarian
SF-539 CNS = system: SF-539 CNS
SF-295 CNS = system: SF-295 CNS
786-0 renal = system: 786-0 renal
SK-MEL-28 melanoma = system: SK-MEL-28 melanoma

SMILES	GI50 (LOX IMVI melanoma) [µM]	TGI (LOX IMVI melanoma) [µM]	GI50 (MALME-3M melanoma) [µM]	TGI (MALME-3M melanoma) [µM]	GI50 (CAKI-1 renal) [µM]	TGI (CAKI-1 renal) [µM]	GI50 (OVCAR-4 ovarian) [µM]	TGI (OVCAR-4 ovarian) [µM]	GI50 (UO-31 renal) [µM]	TGI (UO-31 renal) [µM]	GI50 (OVCAR-8 ovarian) [µM]	TGI (OVCAR-8 ovarian) [µM]	GI50 (SF-539 CNS) [µM]	TGI (SF-539 CNS) [µM]	GI50 (SF-295 CNS) [µM]	TGI (SF-295 CNS) [µM]	GI50 (786-0 renal) [µM]	TGI (786-0 renal) [µM]	GI50 (SK-MEL-28 melanoma) [µM]	TGI (SK-MEL-28 melanoma) [µM]
O=C(/C=C(\[O-])c1ccccc1)CCCCCCC(=O)/C=C(\[O-])c1ccccc1.O=C(/C=C(\[O-])c1ccccc1)CCCCCCC(=O)/C=C(\[O-])c1ccccc1.O=C(/C=C(\[O-])c1ccccc1)CCCCCCC(=O)/C=C(\[O-])c1ccccc1.[Y+3].[Y+3]	> 50	> 50	> 50	> 50	> 50	> 50	14.2	> 50	> 50	> 50	37.4	> 50	31.8	> 50	> 50	> 50	21.7	> 50	> 50	> 50
COc1ccccc1CNCCCN1C(=O)c2ccc3c4c(ccc(c24)C1=O)C(=O)N(CCCNCc1ccccc1OC)C3=O	0.135	0.365	0.155	0.32	0.233	0.725	0.101	0.231	0.196	0.458	0.137	2.26	0.221	0.612	0.213	0.666	0.257	0.703	0.436	0.876
CC[C@]12C=CCN3CC[C@@]4(c5ccc(OC)cc5N(C)[C@H]4[C@@](O)(C(=O)OC)[C@@H]1OC(=O)CCCN1CCN(CCCC(=O)O[C@@H]4[C@]5(CC)C=CCN6CC[C@@]7(c8ccc(OC)cc8N(C)[C@H]7[C@@]4(O)C(=O)OC)[C@@H]65)CC1)[C@@H]32	0.399	1.5	1.6	3.11	0.436	1.91	1.11	2.44	1.1	2.33	1.55	3.36	1.38	2.7	1.74	3.16	1.44	2.91	1.4	2.78
CN(C)c1ccc(/C=c2/sc3nc(=O)c(-c4ccccc4NC(=O)C(F)(F)F)nn3c2=O)cc1		> 100		> 100		> 100		> 100		> 100		> 100		> 100		> 100		> 100		> 100
O=C1c2ccccc2C2(O)N(c3ccccc3)C(=S)N(c3ccccc3)C12O (stereo not given)		> 100		> 100		> 100		> 100		> 100		> 100		> 100		> 100		> 100		> 100
O=C(O)CSc1cc(NS(=O)(=O)c2ccc(Br)cc2)c2ccccc2c1O	3.14	12.1	8.02	21.1	14.6	29.4	1.62	3.05	12	25.2	3.73	11	17.8	32.8	16	30.1	19.9	38.3	14.5	29
FC(F)(F)c1cccc(CNC2CCN(CCc3ccccc3)CC2)c1	15.5	29.1	16	31	22.4	> 100	23.1	> 100	17	> 100	18.2	43.8	15.3	30.2	17.2	35.4	14.6	32.6	16	31.7
C/C(=C\c1ccccc1)C(O)C(=O)c1nc2ccc(Cl)cc2[nH]c1=O (stereo not given)		> 100		> 100		> 100		> 100		> 100		> 100		> 100		> 100		> 100		> 100
COc1cc2c3c(n(CCCN)c(=O)c2cc1OC)-c1ccc(N)cc1C3=O	0.333	2.16	5.85	26.4	30.9	> 82.3	1.57	11.6	37.2	> 100	2.86	59.1	0.302	1.61	3.75	37.3	1.91	5.04	2.16	14.7
CCOC(=O)C1C(NC(N)=O)N(Cc2ccccc2)C(=O)N1Cc1ccccc1 (stereo not given)		> 100		> 100		> 100		> 100		> 100		> 100		> 100		> 100		> 100		> 100
O=C1[C@H](Cc2ccc(O)cc2)N2C(=O)CCN(C(=O)NCc3ccccc3)[C@H]2CN1Cc1cccc2ccccc12	1.43	14.4	1.9	9.46	14.2	> 80.1	0.781	> 49.9	11.3	77.9	0.959	13.5	0.926	7.4	3.22	17.6	3.15	> 46.8	0.79	9.63
CNCc1cccc2c1OCCOCCOCCNS(=O)(=O)c1ccc(cc1)-c1cnc(N)c(n1)C(=O)N2	0.889	2.27	1.55	3.08	0.46	1.86	1.5	6.42	9.82	23.1	1.61	10.4	1.11	2.38	1.76	3.39	1.22	2.89	1.66	3.27
CN(C)c1ccc(/C=N/N=C(\C#N)[S][Sn]([Cl])([c]2ccccc2)[c]2ccccc2)cc1	1.04	2.31	1.74	3.6	1.27	2.56	1.32	2.63	1.58	3.08	2.15	4.91	1.7	3.3	2.29	5.48	1.48	2.83	1.48	2.93
